# According to patent US7417036B2, “Crystal form of adefovir dipivoxil and its preparation” (Tianjin Kinsly Pharmaceutical Co. Ltd., priority 2002, dated 2008):
# Values joined by “and” are separate entries in the source; they are usually repeats but may differ in a detail not shown here. Equal values may be shown once.
# Assay: Kinetic studies of the plasma concentration in animals with different crystalline forms of AD (oral, monkeys; adefovir measured in serum by HPLC)
# Type: in vivo, Macaques
# Conditions: 20 mg/kg, 20 mg/kg
# Description: The experiment was carried out by orally administering to monkeys the drugs in order to investigate the in vivo absorption of two crystalline forms of AD: the novel crystalline AD of the present invention produced by Tianjin Kinsly pharmaceutical R & D Co. Ltd. and crystalline form I of AD prepared according to the method of GILEAD SCIENCES INC. The experiment provides useful clinical references for the application of novel crystalline AD.
# Tablets of novel crystalline form of AD, white, each of which contains 10 mg of adefovir, Tianjin Kinsly pharmaceutical R&D Co. Ltd., batch number 020320.
# Tablets of AD crystalline form I, white, each of which contains 10 mg of adefovir, Tianjin Kinsly pharmaceutical R&D Co. Ltd., batch number 020225.
# Macaques, weighing from 5 kg to 8 kg (certificate No: 2001-03, approved by Beijing Forestry Administration in the document of [2001] 83) were provided by Xie'er Animal Health Caring Science and Technology Co. Ltd (Beijing, P. R. China).
# As the pro-drug of adefovir, AD is the bis-pivaloyloxymethyl ester of adefovir, which increases the in vivo bioavailability of orally administered adefovir. AD can be rapidly metabolized into PMEA, rendering it undetectable in blood. Thus the concentration of its parent compound was measured.
# Mobile phase: 0.2% phosphoric acid-methanol-B7 (97:3:0.5) degassed and filtrated through 0.45 μm milipore filter.
# Stationary phase: C18-column (4.6×250 mm) packed with 5μ fillers, Tianjin Tianhe Chromatogram Inc, the column temperature from 18° C. to 22° C.
# Detection: the UV detection wavelength λ=260 nm (0.01AUFS)
# A given volume of serum was taken and an equal volume of 10% trichloroacetic acid was added. The mixture was shaken thoroughly and kept still for more than 30 min to precipitate the proteins, then centrifuged at 10000 rpm for 2 min. The precipitates were separated and 30 μL of the supernat was removed for injection.
# The experiment was started one week after intestinal worms were dispelled from the animals. Eight animals were randomly assigned into two groups, each consisting of four animals. The animals were fasted for 12 h and were orally administered the novel crystalline form of AD for one group or crystalline form I of AD for another group at a dose of 20 mg/kg together with 200 ml of water. 2 hours after administration, the animals were fed in a fixed quantity. 2.0 ml samples of whole blood were collected from the elbow veins before administration and 10, 20, 30, 45 min and 1, 2, 4, 6, 8, 12, and 24 h after administration. The serum was separated and freeze-stored for measurement. A cross-experiment was done similarly 2 weeks later.
# The pharmacokinetic parameters were calculated based on the plasma concentrations at different time points. The time to peak concentration (Tpeak) and the maximum concentration (Cmax) used the measured value. The terminal phase elimination rate constant (Ke) was obtained by fitting the linear section of the curve of logarithm of the plasma concentration of drug in terminal phase versus time and the terminal phase clearance half life time (T1/2) was calculated by dividing 0.693 by Ke. AUC0-t was calculated according to the trapezoid rule.
# Apparent volume of distribution (Vd)=dosage/(AUCXKe);
# Total Clearance (CL)=dosage/AUC.
# Comparison of the data of the two crystalline form: Data of Cmax, Ke, T1/2 and AUC0-t were statistically processed by t test, while Tpeak was processed by non-parametric test. In addition, Comparison of bio-equivalence was carried out based on Cmax and AUC0-t by using two one-sided t test.
# Eight macaques were assigned into two groups, group for the novel crystalline form and the group for crystalline form I. The animals were administered according to an open randomized crossover scheme. Afterward, adefovir concentrations in serum were measured at the predetermined time points. […]
# [1] = adefovir, oral 20 mg/kg, macaques, average of 8 animals (ASD row)
# [2] = adefovir, oral 20 mg/kg, macaques, average of 8 animals
# [3] = adefovir, oral 20 mg/kg, macaques, individual animal No. 1-8
structure (smiles),measurement,setting,value
CC(C)(C)C(=O)OCOP(=O)(COCCn1cnc2c(N)ncnc21)OCOC(=O)C(C)(C)C [novel crystalline form],"Adefovir concentrations in serum (Plasma concentrations versus time), average","0.167 h after oral administration, macaques, average of 8 animals (ASD row)",74.3 ng/mL
same,Adefovir concentrations in serum (Plasma concentrations versus time),"0.167 h after oral administration, macaques, individual animal No. 1-8",51.8 ng/mL and 105.0 ng/mL and 103.9 ng/mL and 78.3 ng/mL and 64.9 ng/mL and 53.2 ng/mL and 60.0 ng/mL and 76.9 ng/mL
same,"Adefovir concentrations in serum (Plasma concentrations versus time), average","0.333 h after oral administration, macaques, average of 8 animals (ASD row)",201.4 ng/mL
same,Adefovir concentrations in serum (Plasma concentrations versus time),"0.333 h after oral administration, macaques, individual animal No. 1-8",186.7 ng/mL and 258.5 ng/mL and 248.8 ng/mL and 190.1 ng/mL and 125.9 ng/mL and 154.1 ng/mL and 176.3 ng/mL and 270.7 ng/mL
same,"Adefovir concentrations in serum (Plasma concentrations versus time), average","0.5 h after oral administration, macaques, average of 8 animals (ASD row)",507.4 ng/mL
same,Adefovir concentrations in serum (Plasma concentrations versus time),"0.5 h after oral administration, macaques, individual animal No. 1-8",952.4 ng/mL and 403.1 ng/mL and 398.3 ng/mL and 541.8 ng/mL and 396.0 ng/mL and 448.9 ng/mL and 529.4 ng/mL and 389.5 ng/mL
same,"Adefovir concentrations in serum (Plasma concentrations versus time), average","0.75 h after oral administration, macaques, average of 8 animals (ASD row)",392.0 ng/mL
same,Adefovir concentrations in serum (Plasma concentrations versus time),"0.75 h after oral administration, macaques, individual animal No. 1-8",507.6 ng/mL and 306.8 ng/mL and 538.7 ng/mL and 360.6 ng/mL and 278.8 ng/mL and 195.6 ng/mL and 393.7 ng/mL and 55.0 ng/mL
same,"Adefovir concentrations in serum (Plasma concentrations versus time), average","1 h after oral administration, macaques, average of 8 animals (ASD row)",238.8 ng/mL
same,Adefovir concentrations in serum (Plasma concentrations versus time),"1 h after oral administration, macaques, individual animal No. 1-8",260.3 ng/mL and 231.8 ng/mL and 374.7 ng/mL and 269.4 ng/mL and 233.5 ng/mL and 132.7 ng/mL and 273.4 ng/mL
same,"Adefovir concentrations in serum (Plasma concentrations versus time), average","2 h after oral administration, macaques, average of 8 animals (ASD row)",199.3 ng/mL
same,Adefovir concentrations in serum (Plasma concentrations versus time),"2 h after oral administration, macaques, individual animal No. 1-8",221.6 ng/ml and 196.1 ng/ml (2×) and 241.4 ng/ml and 117.7 ng/ml and 105.3 ng/ml and 260.3 ng/ml
same,"Adefovir concentrations in serum (Plasma concentrations versus time), average","4 h after oral administration, macaques, average of 8 animals (ASD row)",157.3 ng/mL
same,Adefovir concentrations in serum (Plasma concentrations versus time),"4 h after oral administration, macaques, individual animal No. 1-8",205.1 ng/mL and 140.9 ng/mL and 184.8 ng/mL and 198.9 ng/mL and 175.8 ng/mL and 85.0 ng/mL and 77.2 ng/mL and 191.0 ng/mL
same,"Adefovir concentrations in serum (Plasma concentrations versus time), average","6 h after oral administration, macaques, average of 8 animals (ASD row)",119.7 ng/mL
same,Adefovir concentrations in serum (Plasma concentrations versus time),"6 h after oral administration, macaques, individual animal No. 1-8",177.0 ng/mL and 114.5 ng/mL and 95.2 ng/mL and 141.2 ng/mL and 141.3 ng/mL and 85.9 ng/mL and 57.3 ng/mL and 145.3 ng/mL
same,"Adefovir concentrations in serum (Plasma concentrations versus time), average","8 h after oral administration, macaques, average of 8 animals (ASD row)",102.7 ng/mL
same,Adefovir concentrations in serum (Plasma concentrations versus time),"8 h after oral administration, macaques, individual animal No. 1-8",158.9 ng/mL and 96.9 ng/mL and 112.0 ng/mL and 89.4 ng/mL and 110.7 ng/mL and 79.0 ng/mL and 55.6 ng/mL and 119.2 ng/mL
same,"Adefovir concentrations in serum (Plasma concentrations versus time), average","12 h after oral administration, macaques, average of 8 animals (ASD row)",70.3 ng/mL
same,Adefovir concentrations in serum (Plasma concentrations versus time),"12 h after oral administration, macaques, individual animal No. 1-8",112.6 ng/mL and 82.1 ng/mL and 46.1 ng/mL and 64.5 ng/mL and 44.8 ng/mL and 59.4 ng/mL and 80.5 ng/mL and 72.2 ng/mL
same,"Adefovir concentrations in serum (Plasma concentrations versus time), average","24 h after oral administration, macaques, average of 8 animals (ASD row)",51.7 ng/mL
same,Adefovir concentrations in serum (Plasma concentrations versus time),"24 h after oral administration, macaques, individual animal No. 1-8",99.3 ng/mL and 76.3 ng/mL and 28.3 ng/mL and 53.1 ng/mL and 36.6 ng/mL and 41.6 ng/mL and 59.4 ng/mL and 19.2 ng/mL
same,Vd,"adefovir apparent volume of distribution, oral 20 mg/kg, macaques, individual animal No. 1-8",147.5 L and 211.8 L and 89.1 L and 115.1 L and 112.4 L and 265.9 L and 224.6 L and 67.1 L
same,"CL, average",[1],8601.4 mL/h
same,"Ke, average",[1],0.066 L/h
same,"T1/2, average",[1],12.5 h
same,"Tpeak, average",[1],0.56 h
same,"Vd, average",[1],154.2 L
same,"AUC0-t, average",[2],2426.4 ng·h/mL
same,"Cmax, average",[2],545.7 ng/mL
same,"AUC0-t, average","adefovir, oral 20 mg/kg, macaques, average of 8 animals, listed as Novel form",2426 ng·h/mL
same,AUC0-t,[3],3593.4 ng·h/mL and 2567.8 ng·h/mL and 2318.3 ng·h/mL and 2554.7 ng·h/mL and 2162.8 ng·h/mL and 1735.9 ng·h/mL and 1921.2 ng·h/mL and 2556.8 ng·h/mL
same,Cmax,[3],403.1 ng/mL and 538.7 ng/mL and 541.8 ng/mL and 396.3 ng/mL and 448.9 ng/mL and 529.4 ng/mL and 555.0 ng/mL
same,T1/2,[3],18.4 h and 18.8 h and 7.2 h and 10.2 h and 8.4 h and 16.0 h and 14.9 h and 5.9 h
same,Tpeak,[3],0.50 h (6×) and 0.75 h (2×)
same,Cmax,"adefovir, oral 20 mg/kg, macaques, individual animal No. 1-8, listed as Novel form",952.4 ng/mL and 396.2 ng/mL and 448.8 ng/mL
same,average AUCO-T,"adefovir, oral 20 mg/kg",2426.37 ng·h/mL
same,average Tpeak,"adefovir, oral 20 mg/kg",0.56 h
same,average apparent volume of distribution (Vc),"adefovir, oral 20 mg/kg",19.74 L
same,average elimination half-life time,"adefovir, oral 20 mg/kg",12.5 h
same,average peak concentration,"adefovir, oral 20 mg/kg",545.69 ng/mL
